Laboratory results taken from patent publication US20110009362A1, “SOLUBILITY-ENHANCED FORMS OF APREPITANT AND PHARMACEUTICAL COMPOSITIONS THEREOF” (DR. REDDY'S LABORATORIES LTD., priority 2008, published 2011).
Converted amounts (≈) assume the structure as drawn.

Key:
[1] = cited from earlier work
[2] = Saturation solubility of aprepitant forms in water and aqueous HPβCD solutions; assay type: physicochemical; conditions: water, thermodynamic from solid, 1A: pH 7.0
Experimental: Crystalline Form I of aprepitant, amorphous aprepitant, or aprepitant coprecipitate was added to water and to aqueous HPβCD solutions of different concentrations, with stirring until the saturation solubility was reached. […] 1B—pH adjusted to 1.2 using hydrochloric acid. 1C—pH adjusted to 11 with 0.3% sodium bicarbonate solution. Complexes with HPβCD are prepared by adding aprepitant to aqueous solutions of HPβCD and sonicating the solutions to dissolve aprepitant, until saturation is attained.

[3] = Particle size analysis, Malvern Mastersizer; assay type: physicochemical
Description: The particle size distribution of a material is generally described in terms of D10, D50, D90, and D[4,3], used routinely to describe the particle sizes or size distributions. It is expressed as volume or weight or surface percentages. Dx as used herein is defined as the size of particles where x percent of the particles have sizes less than the value given. D[4,3] is the volume mean diameter of the particles. D90 for example means that 90% of the particles are below the specified particle size. Particle sizes or particle size distributions of the pharmaceutical compositions of aprepitant of the present invention are determined using any techniques that are known to the person skilled in the art including but not limited to sieve analysis, size analysis by laser light scattering such as using a Malvern particle size analyzer (Malvern Instruments Ltd., Malvern, Worcestershire, United Kingdom) and the like. Pharmaceutical compositions of aprepitant of the present invention are generally fine, uniform and free of agglomerates.
As used herein, the term “mean particle size” refers to the distributions of aprepitant particles, including aprepitant co-precipitate particles, wherein about 50 percent of all particles measured have a particle size less than the defined mean particle size value and about 50 percent of all measurable particles measured have a particle size greater than the defined mean particle size value; this can be identified by the term “D50.” Similarly, a particle size distribution where 90 percent of the particles have sizes less than a specified size is referred to as “D90” and a distribution where 10 percent of particles have sizes less than a specified size is referred to as “D10.”
Particle size analysis was carried out using a Malvern Mastersizer.

| SMILES | solubility in acetonitrile ([1]; acetonitrile) | solubility in ethanol ([1]; ethanol) | solubility in isopropyl alcohol ([1]; isopropyl alcohol) | solubility in water ([1]; water) | solubility [2] [µg/mL] | Particle Size D10 ([3]; D10) [μm] | Particle Size D50 ([3]; D50) [μm] | Particle Size D90 ([3]; D90) [μm] |
| --- | --- | --- | --- | --- | --- | --- | --- | --- |
| C[C@@H](O[C@H]1OCCN(Cc2n[nH]c(=O)[nH]2)[C@H]1c1ccc(F)cc1)c1cc(C(F)(F)F)cc(C(F)(F)F)c1 [Aprepitant, 5-[[(2R,3S)-2-[(1R)-1-[3,5-bis(trifluoromethyl)phenyl]ethoxy]-3-(4-fluorophenyl)-4-morpholinyl]methyl]-1,2-dihydro-3H-1,2,4-triazol-3-one] | slightly soluble | sparingly soluble | sparingly soluble | practically insoluble |  |  |  |  |
| C[C@@H](O[C@H]1OCCN(Cc2n[nH]c(=O)[nH]2)[C@H]1c1ccc(F)cc1)c1cc(C(F)(F)F)cc(C(F)(F)F)c1 [Crystalline aprepitant Form I] |  |  |  |  | 0.5 (≈ 0.936 µM) | 17.1 | 29.2 | 52.0 |
